The values that follow come from patent US7429238B2, “Systems and methods for the generation of crystalline polymorphs” (priority 2001, dated 2008).

For data set [1] the following is noted: following a single oral dose, average; cited from earlier work.
For data set [2] the following is noted: rat, in vivo; cited from earlier work.
The nature of data set [3]: Differential scanning calorimetry of the new carbamazepine polymorph. The data set is classed as physicochemical. Particulars: scan rate of 10° C./minute.
A short description of data set [4]: Infrared of single crystals versus KBr pellets (phase transformation under pressure). Particulars: KBr pellets produced at 10,000 psi vs infrared microscopy of single crystals. The data set is classed as physicochemical. An excerpt:
The corresponding peaks in the new polymorph are found at 3474, 3149, 1674, 1394, 773, and 765 cm^−1. […] Significant differences in the IR spectra of two different polymorphs provide a fast, reliable method of polymorph characterization despite the fact that a hydrogen-bonded dimer is observed in the crystal structure of both polymorphs. […] Therefore, it is contemplated that this new form has good shelf life (kinetic trapping of the unstable form).

The conditions of data set [5]: cited from earlier work.
The conditions of data set [6]: room temperature; cited from earlier work.

Regarding `NC(=O)N1c2ccccc2C=Cc2ccccc21` [carbamazepine], the “elimination half-life of unchanged carbamazepine in the plasma” value in data set [1] is listed as “approximately 36 hours”. Further, the long-term toxicity finding entry in data set [2] is on record as “potential carcinogenic risk”.

For the compound `NC(=O)N1c2ccccc2C=Cc2ccccc21` [new polymorph, carbamazepine], the “phase transitions by differential scanning calorimetry” value in data set [3] was “absence of phase transitions below 184 °C”. In addition, in data set [4], the “phase transformation under pressure” value is reported as “not taking place”.

Consider `CC(=O)Nc1ccc(O)cc1` [orthorhombic polymorph, 4-acetamidophenol], for which the “solubility relative to the monoclinic form” value in data set [5] is given as “more soluble”.

Turning to `NC(=O)N1c2ccccc2C=Cc2ccccc21` [trigonal form, carbamazepine], in data set [6], the “solid form stability in solvent” value is given as “undergoes solvent-mediated conversion to the monoclinic crystal”.
